# Measured values reported in US9750426B2, “System and method for assessing response to chemotherapy using magnetic resonance elastography” (MAYO FOUNDATION FOR MEDICAL EDUCATION AND RESEARCH, priority 2010, dated 2017).
# How the values were obtained:
# DoHH2 cells = system: DoHH2 cells
# Protocol: The mice were divided into two groups, the first considered the “control” (N=7) and the second the chemotherapy or “chemo” (N=8) group. […] Following an initial scan to determine baseline stiffness, the control group received an injection of normal saline while the chemo group received 4 mg of cyclophosphamide (160 mg/kg). MRE was performed on each mouse using an experimental setup specifically designed to accommodate the mouse and providing the mouse with the requisite anesthesia, via a constant flow of isofluorane during the image acquisition. MRE was performed at different time points (baseline to 4 days post-injection). The experimental setup included a high-frequency electromechanical driver that was developed to produce localized vibrations in the tumor within the mouse at a frequency of 800 Hz. All experiments were performed on a 3.0 T whole-body MRI scanner using a specialized 6-cm diameter transmit-receive RF coil and an EPI based MRE sequence. The MRE imaging parameters included FOV=5 cm; TRITE=1100/99 msec; motion encoding gradient (MEG) frequency=800 Hz; MEG direction=SI, AP, RL; motion encoding sensitivity=3.98 μm/(π radians); BW=83.0 kHz. Volumetric measurements were obtained using both a caliper and measurements from a T2-weighted image data set in order to quantify treatment response. Elastograms (stiffness maps) were calculated using a Multiple Model Direct Inversion (MMDI) algorithm with a directional filter (Butterworth bandpass filter with cutoff frequencies 2-128 waves/FOV).
# Description for DoHH2 tumor cells: The process 230 starts at process block 232 with either the positioning of the subject in the bore of an MRI system and the coupling of an MRE drive or the positioning of an ex viva sample within an MRE system. […] Thus, the step of positioning the subject for imaging at process block 232 may be initiated within hours to days after the completion of chemotherapy, instead of weeks later, as required in traditional assessment techniques. Once the subject is positioned for MRE imaging, using a high-frequency pulse sequence, such as the example sequence described with respect to FIG. 3, raw MRE data is collected from the subject or sample at process block 234.
# After the raw MRE data is collected at process block 234, the data is pre-processed at process block 236. Pre-processing may include minimum discontinuity phase unwrapping, 2-dimensional filtering along, for example, eight evenly spaced directions in the imaging plane and 2-dimensional order-4 Butterworth bandpass filtering with cutoff wave numbers of 1 and 80 waves/FOV. Then, at process block 238, a 2-D phase gradient inversion is used to process the preprocessed data and produce elastograms. The phase gradient inversion may be done, for example, with a 5×5 window. Using the elastograms, at process block 240, regions of interest (ROIs) can be drawn on the tumor where wave penetration and phase signal to noise ratio were visually acceptable. Using the selected ROIs, the mean stiffness values in these regions of interest can then be measured for each slice, at process block 242, and the average of these values can then be reported as a stiffness value of tumors, at process block 244. Using this information, a determination of the response of the tumor to the chemotherapy can be determined.
# The tumor cells were maintained in RPMI 1640 medium supplemented with 10% heat-inactivated FCS (Sigma Chemical Co.), 50 U/ml penicillin G, 50 μg/ml gentamicin and 100 μg/ml streptomycin (all from Ufe Technologies, Grand Island, N.Y., USA) with the addition of 10 mM HEPES, 4.5 g/l glucose and 1 mM sodium pyruvate. […]
compound,measurement,setting,value
O=P1(N(CCCl)CCCl)NCCCO1 (stereo not drawn) [cyclophosphamide],"tumor stiffness, Mean","DoHH2 tumor cells; CB17/SCID mice, subcutaneous DoHH2 tumors, 160 mg/kg (4 mg) intraperitoneally, tumors excised four hours later, MRE ex vivo, N=5",21.82 kPa
same,stiffness change 4 hours after drug administration (ex vivo),"DoHH2 tumor cells; ex vivo mouse tumor studies, 4 hours after drug administration",stiffness increased
same,change in tumor stiffness measured by MRE versus saline,"DoHH2 tumor cells; one-sided T-test between chemo and saline groups, p value 0.034, 4 hours after dosing",significant change in the tumor stiffness
same,change in stiffness from baseline at day 4,"DoHH2 cells; Tukey HSD test, p=0.02",significant change in stiffness
same,change in stiffness from baseline at day 3,"DoHH2 cells; Tukey HSD test, p=0.04",significant change in stiffness
same,change in tumor volume,"DoHH2 cells; caliper and T2-weighted image measurements, baseline to day 4, p=0.59, no statistically significant change",remained the same or decreased slightly
same,average shear stiffness at day 4,"DoHH2 cells; in vivo MRE 800 Hz, 4 mg (160 mg/kg), day 4, N=8, baseline 9.885±1.74 kPa",8.237±1.93 kPa
same,average decrease in shear stiffness from baseline to day 4,"DoHH2 cells; in vivo MRE, 4 mg (160 mg/kg), N=8",1.649 kPa
same,change in stiffness in vivo before three days after injection,DoHH2 cells; time points before three days after injection,No changes in stiffness were observed
